According to ChEMBL document CHEMBL5131530, “5-Oxopyrrolidine-3-carboxamides as Nav1.8 Inhibitors for Treating Pain Disorders, Cough Disorders, and Acute and Chronic Itch Disorders” (ACS Med Chem Lett, 2022):

Biological target: Sodium channel protein type 10 subunit alpha (Homo sapiens, UniProt Q9Y5Y9)
Test: Inhibition of human Nav1.8 channel stably expressed in HEK293 cells assessed as sodium current flow at holding potential of -90mV by whole-cell voltage clamp assay
Type: cell-based

Chain of Sodium channel protein type 10 subunit alpha (Q9Y5Y9 whole entry, looked up): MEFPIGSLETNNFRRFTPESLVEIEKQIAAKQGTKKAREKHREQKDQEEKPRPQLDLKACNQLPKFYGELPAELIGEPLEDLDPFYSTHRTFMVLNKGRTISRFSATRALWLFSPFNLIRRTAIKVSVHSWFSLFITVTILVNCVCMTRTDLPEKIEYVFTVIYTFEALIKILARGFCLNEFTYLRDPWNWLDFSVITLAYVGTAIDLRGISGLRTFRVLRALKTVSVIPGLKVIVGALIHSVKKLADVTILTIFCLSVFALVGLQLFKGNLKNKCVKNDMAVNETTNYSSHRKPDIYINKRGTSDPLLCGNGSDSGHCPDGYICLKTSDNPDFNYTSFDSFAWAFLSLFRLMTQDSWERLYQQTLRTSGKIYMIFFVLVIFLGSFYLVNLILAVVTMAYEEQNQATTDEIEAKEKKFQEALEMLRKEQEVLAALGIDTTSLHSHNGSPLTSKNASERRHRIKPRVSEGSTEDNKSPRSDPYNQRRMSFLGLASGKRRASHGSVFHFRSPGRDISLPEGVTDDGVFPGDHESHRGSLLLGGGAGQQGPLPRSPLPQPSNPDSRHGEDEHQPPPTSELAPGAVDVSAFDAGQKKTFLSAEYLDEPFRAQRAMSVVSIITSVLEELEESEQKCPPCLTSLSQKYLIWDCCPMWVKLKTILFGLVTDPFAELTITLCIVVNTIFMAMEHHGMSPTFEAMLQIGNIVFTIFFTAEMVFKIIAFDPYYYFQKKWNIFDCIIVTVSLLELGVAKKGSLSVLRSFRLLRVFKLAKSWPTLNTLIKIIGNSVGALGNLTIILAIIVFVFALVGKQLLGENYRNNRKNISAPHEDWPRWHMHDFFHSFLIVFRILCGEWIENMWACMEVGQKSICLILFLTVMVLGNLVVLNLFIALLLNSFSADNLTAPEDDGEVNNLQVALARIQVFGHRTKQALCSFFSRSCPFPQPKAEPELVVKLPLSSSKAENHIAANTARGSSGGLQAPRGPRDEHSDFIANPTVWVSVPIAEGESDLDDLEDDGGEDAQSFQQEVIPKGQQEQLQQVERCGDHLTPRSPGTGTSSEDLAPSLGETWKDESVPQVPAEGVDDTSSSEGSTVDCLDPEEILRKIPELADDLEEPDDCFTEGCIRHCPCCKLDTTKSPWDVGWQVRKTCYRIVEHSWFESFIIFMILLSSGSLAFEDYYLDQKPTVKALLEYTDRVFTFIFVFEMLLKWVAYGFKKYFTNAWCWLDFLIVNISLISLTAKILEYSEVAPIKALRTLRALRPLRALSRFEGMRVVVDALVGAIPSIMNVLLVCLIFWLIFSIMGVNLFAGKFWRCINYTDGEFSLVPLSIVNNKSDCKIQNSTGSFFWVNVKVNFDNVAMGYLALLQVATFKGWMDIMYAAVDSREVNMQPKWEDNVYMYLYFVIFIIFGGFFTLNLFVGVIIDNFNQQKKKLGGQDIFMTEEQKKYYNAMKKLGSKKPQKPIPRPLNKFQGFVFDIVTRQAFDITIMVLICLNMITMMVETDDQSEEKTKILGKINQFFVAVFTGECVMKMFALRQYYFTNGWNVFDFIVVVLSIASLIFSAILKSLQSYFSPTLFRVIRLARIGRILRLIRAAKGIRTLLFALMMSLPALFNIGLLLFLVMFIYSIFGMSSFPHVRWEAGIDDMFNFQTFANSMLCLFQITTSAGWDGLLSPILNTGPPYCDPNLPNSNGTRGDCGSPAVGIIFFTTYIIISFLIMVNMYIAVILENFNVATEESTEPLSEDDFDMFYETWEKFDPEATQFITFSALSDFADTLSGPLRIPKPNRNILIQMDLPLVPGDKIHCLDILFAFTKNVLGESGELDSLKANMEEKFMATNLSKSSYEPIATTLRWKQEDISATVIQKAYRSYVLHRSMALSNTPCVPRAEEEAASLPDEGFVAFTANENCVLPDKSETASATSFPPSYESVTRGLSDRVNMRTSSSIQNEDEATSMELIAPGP

Compound	IC50 [nM]
O=C1C[C@H](C(=O)NC(c2ccc(Cl)cc2)c2ccc(F)c(C(F)(F)F)c2)CN1 (stereo partly specified)	2.6
O=C1C[C@H](C(=O)NC(c2ccc(Cl)cc2)c2ccc(Cl)c(C(F)(F)F)c2)CN1 (stereo partly specified)	1.2
O=C1C[C@H](C(=O)NC(c2cnc(C(F)(F)F)c(Cl)c2)c2ccc(F)c(Cl)c2F)CN1 (stereo partly specified)	4.2

Other lines, results leading:

IC50 [nM]	Compound
4.1	O=C1C[C@H](C(=O)NC(c2ccc(Cl)cc2)c2ccc(OC(F)(F)F)cc2)CN1 (stereo partly specified)
3.4	O=C1C[C@H](C(=O)NC(c2ccc(Cl)cc2)c2ccc(F)c(Cl)c2)CN1 (stereo partly specified)
2.9	O=C1C[C@H](C(=O)NC(c2ccc(F)c(Cl)c2)c2ccc(F)c(C(F)(F)F)n2)CN1 (stereo partly specified)
